Tests used:
[1] = solubility behaviour in ethanol/water mixtures; format: physicochemical
Description: This effect may be used to initiate precipitation and crystallisation by the addition of water to a solution of (+)- or (−)-mefloquine hydrochloride and also to apply seeding techniques using seeds with a desired morphology such as crystalline form A in cubic or cube-like form. However, other non-solvents may be used to initiate precipitation from solution in a solvent such as hydrocarbons (hexane, heptane, cyclohexane and methylcyclohexane) or ethers (t-butyl methyl ether).

[2] = suspensions of mixtures of forms A, B and C, 2° C. to 75° C.
[3] = grinding of form A sample, X-ray powder diffraction; format: physicochemical; conditions: slightly ground to particle size approximately 1 to 10 μm
Description: This sample was slightly ground to reduce the particle size to approximately 1 to 10 μm and to avoid this textural effect. The strongest peak intensities are thus reduced and a few of the small peaks disappear.
Powder X-ray Diffraction (PXRD): PXRD is performed on a Philips 1710 powder X-ray diffractometer using CuKα radiation. D-spacings are calculated from the 2θ values using the wavelength of 1.54060 Å. Generally, 2θ values are within an error of ±0.1-0.2°. The experimental error on the d-spacing values is therefore dependent on the peak location.

## Cl.OC(c1cc(C(F)(F)F)nc2c(C(F)(F)F)cccc12)C1CCCCN1 (stereo not drawn) [(+)- or (−)-mefloquine hydrochloride]
[1]; lower water amounts
  solubility on addition of certain amounts of water to pure ethanol: increased
[1]; water content of above 50% (v/v)
  solubility relative to pure ethanol: lower than in pure ethanol

## Cl.OC(c1cc(C(F)(F)F)nc2c(C(F)(F)F)cccc12)C1CCCCN1 (stereo not shown) [form B]
[2]
  relative stability of crystalline forms: metastable

## Cl.OC(c1cc(C(F)(F)F)nc2c(C(F)(F)F)cccc12)C1CCCCN1 (stereo not shown) [form A]
[3]
  crystal form after grinding: still present after grinding
